Reference: paper PMC10175561, “Two single-point mutations in Ankyrin Repeat one drastically change the threshold temperature of TRPV1” (Nature Communications, 2023)

Target: T1, axTRPV1 (Ambystoma mexicanum, UniProt A0A5K7X138)
T1 construct: gene TRPV1; full-length cDNA in pGEMHE, expressed in Xenopus oocytes; cloned in the authors' earlier work
T1 sequence (A0A5K7X138 1-858): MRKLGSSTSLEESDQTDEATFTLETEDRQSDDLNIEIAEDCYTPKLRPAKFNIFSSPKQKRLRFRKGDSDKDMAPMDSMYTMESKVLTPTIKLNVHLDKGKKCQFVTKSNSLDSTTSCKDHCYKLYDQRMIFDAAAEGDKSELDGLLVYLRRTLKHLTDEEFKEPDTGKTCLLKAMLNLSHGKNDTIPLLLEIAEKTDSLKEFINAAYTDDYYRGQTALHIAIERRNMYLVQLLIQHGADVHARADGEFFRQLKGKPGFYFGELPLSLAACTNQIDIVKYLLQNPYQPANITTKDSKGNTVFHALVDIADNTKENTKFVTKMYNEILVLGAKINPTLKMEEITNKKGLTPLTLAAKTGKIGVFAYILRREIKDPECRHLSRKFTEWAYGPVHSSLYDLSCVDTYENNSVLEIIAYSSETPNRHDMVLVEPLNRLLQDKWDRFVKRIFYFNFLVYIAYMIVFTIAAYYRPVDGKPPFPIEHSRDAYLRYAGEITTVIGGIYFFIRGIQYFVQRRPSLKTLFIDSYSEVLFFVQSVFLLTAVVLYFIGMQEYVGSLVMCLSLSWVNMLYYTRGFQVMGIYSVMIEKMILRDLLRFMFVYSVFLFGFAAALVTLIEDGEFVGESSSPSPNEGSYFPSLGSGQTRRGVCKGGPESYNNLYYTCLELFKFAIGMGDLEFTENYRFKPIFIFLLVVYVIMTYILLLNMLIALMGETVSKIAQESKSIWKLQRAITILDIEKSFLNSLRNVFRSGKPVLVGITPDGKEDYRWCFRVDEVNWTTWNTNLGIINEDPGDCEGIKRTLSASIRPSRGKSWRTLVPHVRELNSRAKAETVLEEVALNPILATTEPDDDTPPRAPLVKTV
Experiment: two-electrode voltage clamp, Xenopus oocytes
Type: cell-based
Conditions: agonist, dose-dependent activation; current at -80 mV; bath pH 7.4

Question: With `COc1cc(CNC(=O)CCCC/C=C/C(C)C)ccc1O` [capsaicin] as the molecule, how does the “two-electrode voltage clamp, Xenopus oocytes” value read?
Answer: The value was “Capsaicin and acid activated all TRPV1s in a dose-dependent manner”.
